Assay [1] concerns TOLEDO. As to the kind of experiment: Combination synergy, Cell Titer Glo, 72 hours. In kind it is cell-based. The following applies: Homo sapiens. The procedure:
(§1) Synergistic anti-tumor activity in DLBCL cell lines was determined using the Cell Titer Glo assay. Briefly, 5,000 cells were plated in 96 well plates in complete tissue culture media. […] Cells were incubated with or without drug for 72 hours in a 37° C. tissue culture incubator prior to evaluation by CellTiter Glo as per the manufacturer protocol (Promega). Synergy was evaluated by calculating combination index score, as described elsewhere (Jacquement et al, Molecular Cancer 2012) following IC50 determination using Prism software. The compounds are commercially available or are made according to synthetic methods known to those skilled in the art.

For assay [2], the system named is U2932. As to the kind of experiment: Combination synergy, Cell Titer Glo, 72 hours. Type of assay: cell-based. The following applies: Homo sapiens. How it is done:
as §1

The test system of the next assay is CLL primary cells. As to the kind of experiment: CLL cell viability with IL-4/CD40L, PI/Annexin V staining. In kind it is cell-based, human. How it is done:
Viability was assessed using (A) PI/Annexin V staining by flow cytometry. A representative plot is shown or (B) summarized (n=9) showing % of control (PI/Annexin V negative cells). […] Points below the diagonal line represent synergistic interactions, above the line are additive.
Values above the diagonal line represent additive interaction and those under the line are synergistic.

In assay [3] the test system is VAL. As to the kind of experiment: Combination synergy, Cell Titer Glo, 72 hours. Type of assay: cell-based. How it is done:
as §1
as §1, with “calculating a” for “calculating”

Another assay has as its system DHL4 (SU-DHL4). Briefly: Combination synergy, Cell Titer Glo, 72 hours. Type of assay: cell-based. As to conditions: Homo sapiens. The procedure:
as §1
as §1, with “calculating a” for “calculating”
A general note: ATP-based viability assays read luminescence as a measure of living cells.

Another assay has as its system Lyl (OCI-Lyl). As to the kind of experiment: Combination synergy, Cell Titer Glo, 72 hours. Type of assay: cell-based. How it is done: as §1
as §1, with “calculating a” for “calculating”

Assay [4] relates to DHL10. As to the kind of experiment: Combination synergy, Cell Titer Glo, 72 hours. Type of assay: cell-based. How it is done: as §1
as §1, with “calculating a” for “calculating”

For assay [5], the system named is DHL6. Briefly: Combination synergy, Cell Titer Glo, 72 hours. Type of assay: cell-based. How it is done: as §1
as §1, with “calculating a” for “calculating”

For another assay, the system named is LY18. Briefly: DLBCL cell line viability, CellTiter Glo, ten-point curve. In kind it is cell-based. As to conditions: read-out: IC50 of Kinase Inhibitor in Cell Titer Glo Assay.
The subject of the next assay is LY7. Described as above. Type of assay: cell-based. As to conditions: read-out: IC50 of Kinase Inhibitor in Cell Titer Glo Assay.
The test system of the next assay is DHL8. Described as above. The following applies: read-out: IC50 of Kinase Inhibitor in Cell Titer Glo Assay. Type of assay: cell-based.
For a further assay, the system named is RCK8. Described as above. In kind it is cell-based. As to conditions: Homo sapiens; RCK8 cell line; read-out: IC50 of Kinase Inhibitor in Cell Titer Glo Assay.
For assay [6], the system named is TOLEDO. Described as above. Type of assay: cell-based. The following applies: Homo sapiens; TOLEDO cell line; read-out: IC50 of Kinase Inhibitor in Cell Titer Glo Assay.
From the text: (§2) Each IC50 value is an average of at least four replicate experiments.
For assay [7], the system named is DHL10. The assay is described as above. Type of assay: cell-based. The following applies: read-out: IC50 of Kinase Inhibitor in Cell Titer Glo Assay.
From the text: as §2
The test system of assay [8] is VAL. Described as above. In kind it is cell-based. The following applies: read-out: IC50 of Kinase Inhibitor in Cell Titer Glo Assay.
From the text: as §2
The subject of a further assay is DHL4. Described as above. Type of assay: cell-based. As to conditions: read-out: IC50 of Kinase Inhibitor in Cell Titer Glo Assay.
Another assay concerns LY10 (OCI-LY10). The assay is described as above. As to conditions: LY10 cell line; read-out: IC50 of Kinase Inhibitor in Cell Titer Glo Assay. Type of assay: cell-based.
The test system of a further assay is DHL5. The description is as above. In kind it is cell-based. The following applies: read-out: IC50 of Kinase Inhibitor in Cell Titer Glo Assay.
In the next assay the test system is LY1. Described as above. Type of assay: cell-based. As to conditions: read-out: IC50 of Kinase Inhibitor in Cell Titer Glo Assay.
Assay [9] has as its system U2932. Described as above. As to conditions: Homo sapiens, read-out: IC50 of Kinase Inhibitor in Cell Titer Glo Assay. In kind it is cell-based.
From the text: as §2
Assay [10] has as its system DHL6. The assay is described as above. In kind it is cell-based. The following applies: read-out: IC50 of Kinase Inhibitor in Cell Titer Glo Assay.
From the text: as §2
The subject of the next assay is DLCL2. The assay is described as above. In kind it is cell-based. The following applies: read-out: IC50 of Kinase Inhibitor in Cell Titer Glo Assay.
For a further assay, the system named is DB. The description is as above. In kind it is cell-based. The following applies: Homo sapiens; DB cell line; read-out: IC50 of Kinase Inhibitor in Cell Titer Glo Assay.
The test system of another assay is OCI-Ly18. As to the kind of experiment: Combination synergy, Cell Titer Glo, 72 hours. Type of assay: cell-based. The following applies: Homo sapiens, OCI-Ly18, 72 h. How it is done:
as §1, with “calculating a” for “calculating”

The subject of assay [11] is WT BTK-transfected TMD8 cells. Briefly: Cell count and viability of transfected TMD8 cells. Type of assay: cell-based. As to conditions: 250 nM; 7 days.
From the text: (§3) Cell transfection, cell count and viability assay: TMD8 cells were transfected with constructs of WT BTK or BTK^C481S mutants using kit V, Program U-13 on Amaxa Nucleofector, according to the manufacturer's protocols (Amaxa, Cologne, Germany). After transfection, the cells were co-cultured with NKTert cells in a 24-well plate for 24 hrs for recovery.
Assay [12] concerns BTK^C481S-transfected TMD8 cells. As to the kind of experiment: Cell count and viability of transfected TMD8 cells. In kind it is cell-based. The following applies: 250 nM; 7 days.
From the text: as §3
The test system of the next assay is primary CLL cells. Briefly: Apoptosis in primary CLL samples, propidium iodide/Annexin V staining and PARP cleavage. Type of assay: cell-based, human. As to conditions: co-treatment with cerdulatinib.

Like-named read-outs stand apart in the source and are kept apart here. Peptide text beside a SMILES is read from it. * marks the point of attachment. Cbz = O=C(OCc1ccccc1)*; CH2F = FC*

From the text for DB: as §2
From the text for DHL5: as §2
From the text for DHL8: as §2
From the text for DLCL2: as §2
From the text for LY10 (OCI-LY10): as §2
From the text for LY7: as §2
From the text for RCK8: as §2

For the compound `CC1(C)CCC(CN2CCN(c3ccc(C(=O)NS(=O)(=O)c4ccc(NCC5CCOCC5)c([N+](=O)[O-])c4)c(Oc4cnc5[nH]ccc5c4)c3)CC2)=C(c2ccc(Cl)cc2)C1` [ABT-199, 4-(4-{[2-(4-chlorophenyl)-4,4-dimethylcyclohex-1-en-1-yl]methyl}piperazin-1-yl)-N-({3-nitro-4-[(tetrahydro-2H-pyran-4-ylmethyl)amino]phenyl}-sulfonyl)-2-(1H-pyrrolo[2,3-b]pyridin-5-yloxy)benzamide, reference compound], the IC50 (in general, the midpoint of a concentration-inhibition curve) was determined as 0.23 µM with TOLEDO [1]; 0.49 µM in the assay with U2932 [2] (U2932, 72 h, read-out: IC50); 0.49 µM in the assay with U2932 [2] (U2932 cell line, read-out: IC50 value); 4.3 µM in the assay with VAL [3]; 1.63 µM with DHL4 (SU-DHL4) (SU-DHL-4, 72 h, read-out: IC50); 1.63 µM in the assay with DHL4 (SU-DHL4) (SU-DHL-4, SU-DHL4 cell line, read-out: IC50 value). Further, the IC50 in the assay on Lyl (OCI-Lyl) was 0.75 µM; in the assay with DHL10 [4] it was 3.7 µM; in the assay on DHL6 [5], 0.023 µM. In addition, the CLL cell viability entry in the assay on CLL primary cells (IL-4/CD40L for 6 hours, then drug for 24 hours, n=9) was “protected CLL cells against ABT-199 induced apoptosis”; with CLL primary cells (absence of IL-4/CD40L, 24 hours), “significantly reduced CLL cell viability”.
With `COc1cccc2c1C(=O)c1c(O)c3c(c(O)c1C2=O)C[C@@](O)(C(=O)CO)C[C@@H]3O[C@H]1C[C@H](N)[C@H](O)[C@H](C)O1` [Doxo, Doxorubicin], the IC50 in the assay on LY18 was 0.06 µM; with LY7, 0.14 µM; in the assay on DHL8, 0.15 µM; with RCK8, 0.2 µM; in the assay on TOLEDO [6] it was 0.44 µM; in the assay with DHL10 [7], 0.3 µM. Moreover, the IC50 with VAL [8] is 0.22 µM; in the assay on DHL4, 0.1 µM; in the assay on LY10 (OCI-LY10), 0.04 µM; with DHL5, 0.03 µM; in the assay with LY1, 0.19 µM; in the assay with U2932 [9], 0.35 µM. The IC50 was found to be 0.14 µM with DHL6 [10], 0.18 µM in the assay on DLCL2 and 0.37 µM in the assay with DB.
For the compound `C[C@H](Nc1ncnc2nc[nH]c12)c1cc2cccc(Cl)c2c(=O)n1-c1ccccc1` [IPI-145], the IC50 is 0.96 µM with LY18; 25 µM in the assay with LY7; 45 µM with DHL8; at least 50 µM with RCK8; 18 µM in the assay on TOLEDO [6]; 4.1 µM with DHL10 [7]. In addition, the IC50 in the assay with VAL [8] turned out to be 21 µM; in the assay on DHL4, 3.7 µM; in the assay with LY10 (OCI-LY10), 5.7 µM; in the assay on DHL5, 0.33 µM; with LY1, 1.3 µM; with U2932 [9], 27 µM. The IC50 with DHL6 [10] was 0.002 µM; in the assay on DLCL2, 5 µM; in the assay with DB it was at least 50 µM.
In the case of `C=CC(=O)N1CCC[C@@H](n2nc(-c3ccc(Oc4ccccc4)cc3)c3c(N)ncnc32)C1` [Ibrutinib, 1-[(3R)-3-[4-Amino-3-(4-phenoxyphenyl)-1H-pyrazolo[3,4-d]pyrimidin-1-yl]piperidin-1-yl]prop-2-en-1-one, reference compound], the IC50 was 1.24 µM in the assay on OCI-Ly18; 4.56 µM with VAL [3]; 3.1 µM with DHL4 (SU-DHL4) (SU-DHL-4, 72 h, read-out: IC50); 0.75 µM in the assay with Lyl (OCI-Lyl); 1.89 µM in the assay with DHL10 [4]; 0.31 µM in the assay with DHL6 [5]. The cell growth result in assay [11] is reported as “similarly inhibited”; in assay [12], “less sensitive”.
For the compound `CC[C@H](Nc1ncnc2[nH]cnc12)c1nc2cccc(F)c2c(=O)n1-c1ccccc1` [Idelalisib], the IC50 was 3.8 µM with LY18; 13 µM in the assay with LY7; 49 µM in the assay on DHL8; at least 50 µM in the assay with RCK8; at least 50 µM in the assay with TOLEDO [6]; 12 µM in the assay with DHL10 [7]. Also, the IC50 in the assay with VAL [8] is 29 µM; with DHL4, 12 µM; with LY10 (OCI-LY10) it was 12 µM; in the assay on DHL5 it was 1.3 µM; with LY1 it was 4.9 µM; in the assay on U2932 [9], 40 µM. In addition, the results for the IC50 in the assay with DHL6 [10], with DLCL2 and in the assay with DB were 0.03 µM, 15 µM and 42 µM, respectively.
In the case of `CC(NC(=O)C(NC(=O)OCc1ccccc1)C(C)C)C(=O)NC(CC(=O)O)C(=O)CF` (stereo not drawn) [ZVAD, reference compound] (Cbz-Val-Ala-Asp-CH2F; configuration not given here), the “cerdulatinib induced apoptosis on co-treatment” value with primary CLL cells is reported as “inhibited”.

These data come from US11446300B2 (Alexion Pharmaceuticals, Inc., priority 2015, dated 2022).
